We go through twelve compounds from patent publication US4391828A, “Dibutylorthobenzylmethoxybenzenes and dibutylorthocinnamylmethoxybenzenes as mosquito larvae growth inhibitors” (The United States of America as represented by the …, priority 1982, dated 1983).

SMILES strings stand for the structures. Values after ≈ are worked out from the molar mass of the structure shown.

Common to all, as to test: Growth-inhibition test on mosquito larvae
Experiment [1] has as its system Anopheles quadrimaculatus. In kind it is in vivo, Anopheles quadrimaculatus (malaria mosquito). The conditions noted are these: late third- and early fourth-stage larvae, 7 days, corrected by Abbott's formula; for LC50: 168 h, read-out: LC-50 (concentration that would prevent and/or retard the growth in 50% of the treated larvae). The procedure:
(§1) Twenty-five late third-and early fourth-stage mosquito larve were placed in a 500-ml glass jar (9X8.5 cm diam) containing 100 ml of well water, 0.05g ground hog supplement for larval food, and a known amount of the test compound in not more than 1.0ml acetone. The jars were covered with cloth netting and held in constant temperature incubators at 26.7°-28.9° C. and 65-75% relative humidity; a low level of illumination (ca. 0.5 foot candles inside the incubators) was maintained during nonworking hours. After seven days, the jars were examined for the number of dead pupae, the number of adults that were dead or unable to complete eclosion and the number of exuvia. […] Tests were replicated for at least one concentration and a control was set with each test series. Several concentrations of each compound were tested so that a dose-response relationship could be established.
(§2) The effectiveness of the compound in inhibiting growth was determined by adding the numbers of dead larvae and pupae and the numbers of adults that were dead, unable to complete eclosion, and malformed. This sum was corrected by Abbott's formula (to adjust for the number of larvae or pupae which would die naturally). The results are expressed as LC 50 or LC 90, i.e., the concentration of growth inhibitor in ppm that would prevent and/or retard the growth in 50% or 90%, respectively, of the treated larvae.

Experiment [2] relates to Aedes taeniorhynchos. It counts as in vivo. The conditions noted are these: late third- and early fourth-stage larvae, 7 days, corrected by Abbott's formula. The procedure:
as §1, §2

Experiment [3] relates to Anopheles albimanus. In kind it is in vivo. The conditions noted are these: late third- and early fourth-stage larvae, 7 days, corrected by Abbott's formula. The procedure: as §1, §2
Experiment [4] deals with Aedes aegypti. It counts as in vivo, Aedes aegypti (yellow fever mosquito). The conditions noted are these: late third- and early fourth-stage larvae, 7 days, corrected by Abbott's formula. The procedure:
as §1, §2

For the compound `CCOc1c(Cc2ccc(OC)cc2)cc(C(C)(C)C)cc1C(C)(C)C` [B-II], in experiment [1], the LC50 was 0.074 µg/mL (≈ 0.209 µM) and the “LC-90 (concentration that would prevent and/or retard the growth in 90% of the treated larvae)” value came to 0.285 ppm.

On to `COc1ccc(C(C)c2cc(C(C)(C)C)cc(C(C)(C)C)c2OC)cc1` (stereo not drawn) [B-IV], for which, in experiment [1], the LC50 amounted to 0.242 µg/mL (≈ 0.683 µM) and the “LC-90 (concentration that would prevent and/or retard the growth in 90% of the treated larvae)” value is given as 0.556 ppm.

As for `CC(C)(C)c1cc(Cc2ccccc2)c(O)c(C(C)(C)C)c1` [A-I], in experiment [1], the LC50 turned out to be 0.2 µg/mL (≈ 0.675 µM) and the “LC-90 (concentration that would prevent and/or retard the growth in 90% of the treated larvae)” value came to 1.37 ppm.

With `CCOc1c(C(C)c2ccc(OC)cc2)cc(C(C)(C)C)cc1C(C)(C)C` (stereo not drawn) [B-V], the “LC-90 (concentration that would prevent and/or retard the growth in 90% of the treated larvae)” value in experiment [1] is on record as over 1.0 ppm.

In the case of `CCOc1c(C(C)c2ccccc2)cc(C(C)(C)C)cc1C(C)(C)C` (stereo not drawn) [A-II], in experiment [1], the “LC-90 (concentration that would prevent and/or retard the growth in 90% of the treated larvae)” value was over 1.0 ppm.

`CCOc1c(CC=Cc2ccccc2)cc(C(C)(C)C)cc1C(C)(C)C` [C-II]: in experiment [1], the LC50 worked out at 0.189 µg/mL (≈ 0.539 µM) and the “LC-90 (concentration that would prevent and/or retard the growth in 90% of the treated larvae)” value is 1.042 ppm.

As for `COc1c(C(C)c2ccccc2)cc(C(C)(C)C)cc1C(C)(C)C` (stereo not drawn) [A-III], the “LC-90 (concentration that would prevent and/or retard the growth in 90% of the treated larvae)” value in experiment [1] is over 1.0 ppm.

Take `COc1c(Cc2ccccc2)cc(C(C)(C)C)cc1C(C)(C)C` [A, 2,4-Bis(1,1-dimethylethyl)-6-(phenylmethyl)methoxybenzene]: in experiment [1], the LC50 amounted to 0.065 µg/mL (≈ 0.209 µM) and the “LC-90 (concentration that would prevent and/or retard the growth in 90% of the treated larvae)” value amounted to 0.092 ppm. In addition, in experiment [2], the LC-50 was 0.026 ppm and the LC-90 amounted to 0.164 ppm. In experiment [3], this compound displayed an LC-50 of 0.014 ppm and an LC-90 of 0.025 ppm.

As for `CC(C)(C)c1cc(CC=Cc2ccccc2)c(O)c(C(C)(C)C)c1` [C-I], in experiment [1], the LC50 came to 0.152 µg/mL (≈ 0.471 µM) and the “LC-90 (concentration that would prevent and/or retard the growth in 90% of the treated larvae)” value is 0.399 ppm.

For `COc1ccc(Cc2cc(C(C)(C)C)cc(C(C)(C)C)c2O)cc1` [Compound B-I, 2,4-bis(1,1-dimethylethyl)-6-[(4-methoxyphenyl)methyl]phenol], in experiment [1], the LC50 is 0.12 µg/mL (≈ 0.368 µM) and the “LC-90 (concentration that would prevent and/or retard the growth in 90% of the treated larvae)” value was found to be 0.225 ppm.

As to `COc1ccc(Cc2cc(C(C)(C)C)cc(C(C)(C)C)c2OC)cc1` [Compound B, 2,4-Bis (1,1-dimethylethyl)-6-[(4-methoxyphenyl)methyl]-methoxybenzene], the figures for the LC-50 in experiment [4], in experiment [2] and in experiment [3] were 0.005 ppm, 0.009 ppm and “.005 ppm”, respectively. The figures for the LC-90 in experiment [4], in experiment [2] and in experiment [3] were 0.099 ppm, 0.023 ppm and 0.009 ppm, respectively. The “LC-90 (concentration that would prevent and/or retard the growth in 90% of the treated larvae)” value in experiment [1] is reported as 0.032 ppm.

For the compound `COc1c(CC=Cc2ccccc2)cc(C(C)(C)C)cc1C(C)(C)C` [C, 2,4-Bis(1,1-dimethylethyl)-6-(3-phenyl-2-propenyl)methoxybenzene], in experiment [1], the LC50 was found to be 0.026 µg/mL (≈ 0.0773 µM) and the “LC-90 (concentration that would prevent and/or retard the growth in 90% of the treated larvae)” value is 0.089 ppm.
